Data on two compounds can be found in patent US7537906B2, “Apoptosis inducer and method of screening for a substance inhibiting acylated homoserine lactone” (priority 2003, dated 2009).

The test has as its system CaCo-2 cells. The test is described as follows: Effects of kinase inhibitors on N-(3-oxododecanoyl)-L-homoserine lactone-dependent apoptosis, viability by Trypan blue staining. The following applies: then 30 μM N-(3-oxododecanoyl)-L-homoserine lactone, 12 hours. The test is classed as cell-based, human. As for the experimental part:
2×10^5 CaCo-2 cells were inoculated per 3.5 cm dish, cultured for 12 hours in the presence of 10% serum, washed twice with PBS (-), and then synchronously cultured in a serum-free medium for 24 hours. Pretreatment with various inhibitors (50 μM PD98059 and 20 μM SB203580) or DMSO was carried out for 30 minutes. Then 30 μM N-(3-oxododecanoyl)-L-homoserine lactone or DMSO was added, the cells were cultured for 12 hours, and then viability was measured by Trypan blue staining.

Take `COc1cccc(-c2cc(=O)c3ccccc3o2)c1N` [PD98059]: the “effect of pretreatment on viability” value (50 μM pretreatment 30 minutes) is recorded as “no effect”.

As usually defined, the viability is a per cent measure of how many cells are alive, often set against a control. Take `C[S+]([O-])c1ccc(-c2nc(-c3ccncc3)c(-c3ccc(F)cc3)[nH]2)cc1` (centres unmarked) [SB203580]: the viability at 20 µM (Homo sapiens, 20 μM pretreatment 30 minutes) was determined as 35%.
